On the set-up of data set [1]: species or system rats. Conditions: rat, in vivo. How it is done:
At infusion rates greater than 20 μg/kg/min the systemic blood pressure in the rats was reduced.
(§1) [^14 C] AIB and [^14 C] dextran were used for quantitative autoradiographic examination of regional permeability. One week after tumor implantation, the rats were again anesthetized and a polyethylene (PE-10) catheter was inserted retrograde throughout the external carotid artery to the common carotid artery bifurcation ipsilateral to the tumor. The external carotid artery was then ligated. One femoral artery was cannulated to monitor systemic blood pressure and the other femoral artery was cannulated to withdraw arterial blood. Body temperature was maintained at […] and arterial blood gas levels, blood pressure, hematocrit were monitored. Animals with abnormal physiological parameters were eliminated. After rat preparation, bradykinin (10 μg/kg/min in saline) or saline as control was infused into the right carotid artery at a rate of 53.3 μ/min for 15 minutes. Five minutes after the start of the intracarotid infusion, 100 μCi/Kg of the tracer was injected as an intravenous bolus. A peristaltic withdrawal pump was used to withdraw femoral arterial blood at a constant rate of 0.083 ml/min immediately after injection of tracer for determination of serum radioactivity. Fifteen minutes after the start of intracarotid infusions, the animals were killed by decapitation and the brains were rapidly removed and frozen.
One week after tumor implantation, the rats were again anesthetized and a polyethylene (PE-10) catheter was inserted retrograde through the external carotid artery to the common carotid artery bifurcation ipsilateral to the tumor. The external carotid artery was then ligated. […] Body temperature was maintained at 37° C. and arterial blood gases, blood pressure, and hematocrit were monitored. […]
RMP-7 infused at a rate greater than 1.0 μg/kg/min (dissolved in phosphate buffer, pH 7.4) reduced systemic blood pressure in rats when given either intravenously or into the carotid artery. […] Physiological parameters, which included arterial blood pH, PaO2, were also monitored.

The next data set deals with brain tumor capillaries. The note with it: intracarotid infusion of LTC4; cited from earlier work.
Data set [2] relates to RG-2 glioma. Description: Microscopic analysis with intravenously injected horseradish peroxidase (HRP). It counts as in vivo, Wistar rats. The protocol: Microscopic analysis was performed using intravenously injected horseradish peroxidase (HRP) as described in (22). After rat preparation as previously described, bradykinin (10 μg/kg/min in saline) or saline as a control was injected into the fight carotid artery for 15 minutes. Five minutes after the start of the intracarotid infusion, 20 mg/100 g of horseradish peroxidase (HRP) was injected by an intravenous bolus. Ten minutes after the HRP injection, rats were perfused with a mixture of 2% glutaraldehyde and 2% formaldehyde in 0.1 sodium phosphate buffer solution at pH 7.4 through the heart. After fixation, the brains were removed and cut at 40 μm thickness on a vibratome. The sections were preincubated for 15 minutes at room temperature in the medium consisting of 10 ml 0.05 M-Tris-HCl buffer (pH 7.4), 3,3'-diaminobenzidine tetrahydrochloride and 0.02% hydrogen peroxide (Sigma). The sections were trimmed down to the areas of interests, post-fixed for 2 hours in 2% osmium tetroxide with 0.1M sodium phosphate, dehydrated, and embedded in plastic. Plastic sections 1 μm thick were observed under light microscopy.

For data set [3] the following is noted: rat, in vivo; cited from earlier work.
The test system of data set [4] is RG-2 glioma. Description: Regional permeability (unidirectional transfer constant Ki) by quantitative autoradiography after intracarotid infusion. It counts as in vivo, Wistar rats. The protocol:
An experimental brain tumor model was made using female Wistar rats and RG-2 glioma cells. The RG-2 glioma cell line was maintained in a monolayer culture in F12 medium with 10% calf serum. Female Wistar rats, each weighing 150 to 250 gm were anesthetized with intra peritoneal pentobarbital (30 mg/kg). Glial tumors were implanted into the right hemisphere by intracerebral injections of 1×10^5 RG-2 glioma cells in five μl of 1.2% methyl cellulose (F12 medium). One week after tumor implantation, the rats were used for the brain tumor model.
The rats were divided into two groups: a bradykinin group treated with intracarotid infusion of 10 […] of bradykinin or the control group treated with intracarotid infusion of saline. The effect of intracarotid infusion of bradykinin was compared to saline infusions by statistical analysis of the Ki values using ANOVA and Students T-Tests.
as §1
Autoradiography was conducted as follows: the frozen brains were mounted onto pedestals with M-1 embedding matrix, and 20 μm coronal sections were cut into a cryotome. The sections were thawmounted onto cover slips, and autoradiograms were generated by coexposing the sections on Kodak XAR-5 film with tissue-calibrated ^14 C standards for 2 weeks. The sequential section was stained with hematoxylin for correlation of areas of histologically verified tumor with autoradiograms. The regional radioactivities were measured in tumor, brain surrounding the tumor (BST; areas at around 2 mm distance from the border of the tumor), ipsilateral cortex to tumor (ipsi cortex), contralateral cortex (contra cortex), ipsilateral white matter (ipsi WM), contralateral WM (contra WM), ipsilateral basal ganglia (ipsi BGG), and contralateral BGG (contra BGG). Quantitative analysis of the regional radioactivity was performed using a computer (Macintosh II) with a scanner (UMAX UC630) and the software, Image 1.45 (NIH). […]
The frozen brains were mounted onto pedestals with M-1 embedding matrix, and 20 μm coronal sections were cut with a cryotome. The sections were thaw-mounted onto cover slips, and autoradiograms were generated by co-exposing the sections on Kodak XAR-5 film with tissue-calibrated ^14 C standards for 2 weeks. The sequential section was stained with hematoxylin for correlation of areas of histologically verified tumor with autoradiograms. The regional radioactivity was measured in tumor, brain surrounding the tumor (BST; areas within 2 mm distance from the border of the tumor), ipsilateral cortex to tumor, contralateral cortex, ipsilateral white matter (WM), contralateral WM, ipsilateral basal ganglia (BG), and contralateral BG. […]

The test system of data set [5] is RG-2 glioma. Description: Blood volume in brain and tumor by graphic method using [14C] dextran. It counts as in vivo, Wistar rats. Conditions: intracarotid bradykinin infusion. The protocol: The blood volume for the quantitative examination of permeability was calculated with a graphic method using [^14 C] dextran (MW 70,000). The blood volume in normal brain tissue and tumors were 4.5 and 9.15 μ/g, respectively (FIG. 1). The slopes were the unidirectional transfer constants, the Ki values (μl/g/min), in the two groups. […] The tumor blood volume was almost twice that of the normal brain tissue, but the brain and tumor blood volumes were not altered by intracarotid bradykinin infusion.
RMP-7 (at 1.5 μg/kg) or vehicle (control) was infused into the right carotid artery at a volume rate of 0.8 ml over 15 minutes (i.e. 53 μ/min). In blood volume studies, 100 μCi/kg of [^14 C] dextran was injected as an intravenous bolus at either 5, 10, 14 or 14.5 minutes after the start of the intracarotid infusion to make the circulation time of dextran 10, 5, 1, 0.5 minutes, respectively. […] A peristaltic withdrawal pump was used to withdraw femoral arterial blood at a constant rate of 0.083 ml/min immediately after the injection of the tracer for the determination of serum radioactivity. […]
The blood volume for the quantitative examination of permeability was calculated with a graphic method using [^14 C] dextran. […] Ki was similar in these experiments whether calculated using the graphic method or the method described by Ohno (25) and Ziylan (26).

The subject of a further data set is normal brain capillary. The note with it: in vivo; cited from earlier work.
Data set [6] has as its system RG-2 glioma. Description: Evans blue (EB-albumin) staining of tumor and brain after intracarotid infusion. It counts as in vivo, Wistar rats. Conditions: intracarotid bradykinin infusion; 2 ml/kg of 2% EB i.v. The protocol: After the intracarotid bradykinin infusion, the rat was perfused with 200 ml of phosphate buffer through the heart to wash out the remaining EB from the vessels. The brains were removed immediately and cut as coronal sections.
Since EB binds to serum albumin (MW 67,000) in blood and distributes with albumin in vivo, EB staining in the tissue indicates the distribution of albumin (4). In order to observe the extravasated EB and not the EB remaining in the vessels in the brain, the blood from the brain was washed out by perfusing the rats with phosphate buffer from the heart.
Six rats were used to examine whether RMP-7 could selectively deliver albumin to tumors. Evans blue (EB) was injected intravenously instead of radiolabeled tracers. After the preparation of rats, 2 ml/kg of 2% EB was injected intravenously instead of radiolabeled tracers. After the intracarotid RMP-7 (n=3) or vehicle (n=3) infusion, the rat was perfused with 200 ml of phosphate buffer through the heart to wash out the remaining EB from the vessels. The brains were removed immediately and cut as coronal sections.

The test system of data set [7] is brain capillary endothelial cells. Conditions: nanomolar concentrations of bradykinin; cited from earlier work.
[8] abbreviates: tumor, intracarotid bradykinin 10 μg/kg/min vs saline.

The structures appear in SMILES notation. Residues, ends and D or L forms follow the SMILES beside them.

In the case of `C[C@H](CS)C(=O)N1CCC[C@H]1C(=O)O` [captopril], the “Systemic pressure when intravenous captopril infusion was used to enhance bradykinin effect” value in [1] (iv) was “hypotension occurred”.

Regarding `CCCCC/C=C\C\C=C/C=C/C=C/[C@@H](SC[C@H](NC(=O)CC[C@H](N)C(=O)O)C(=O)NCC(=O)O)[C@@H](O)CCCC(=O)O` [LTC4, leukotriene C4], the “Effect on capillary permeability” value in the data set on brain tumor capillaries is “selectively increases the permeability in brain tumor capillaries without affecting the permeability in normal brain capillaries”.

For `NC(N)=NCCC[C@H](NC(=O)[C@H](Cc1ccccc1)NC(=O)[C@@H]1CCCN1C(=O)[C@H](CO)NC(=O)[C@H](Cc1ccccc1)NC(=O)CNC(=O)[C@@H]1CCCN1C(=O)[C@@H]1CCCN1C(=O)[C@@H](N)CCCN=C(N)N)C(=O)O` [bradykinin] (H-RPPGFSPFR-OH), the “HRP extravasation in normal brain” value in the data set on RG-2 glioma [2] (normal brain, bradykinin 10 μg/kg/min intracarotid) is recorded as “no extravasation of HRP between cells”. Moreover, the “HRP stain in tumor” value with RG-2 glioma [2] (tumor, bradykinin 10 μg/kg/min intracarotid 15 min) is recorded as “well recognized in the extracellular space between tumor cells”. Further, in data set [3], the “Degradation of bradykinin in rats, time” value is “several hours”. The “Ki value of the brain surrounding tumor (BST) for [14C] AIB” value with RG-2 glioma [4] (BST, 2 mm from tumor border, intracarotid bradykinin 10 μg/kg/min) worked out at 3.50 ± 1.29 µL/g/min. Also, in the data set on RG-2 glioma [4] (normal brain regions, intracarotid bradykinin 10 μg/kg/min), the “Ki values of brain regions without tumor, treated vs control” value is listed as “no significant differences”. In the data set with RG-2 glioma [4] (tumor, intracarotid bradykinin 10 μg/kg/min for 15 min), the “Ki value of the tumors for [14C] AIB (MW 103)” value came to 25.91 ± 6.78 µL/g/min. Further, the “Ki value of the tumors for [14C] dextran (MW 70,000)” value in the data set with RG-2 glioma [4] (tumor, intracarotid bradykinin 10 μg/kg/min for 15 min, mean±SD) was determined as 17.84 ± 1.00 µL/g/min. Also, in the data set with RG-2 glioma [4] (setting [8]), the “Ki of tumors for [14C] AIB, fold higher than control group” value is on record as 1.8 fold and the “Ki of tumors for [14C] dextran, fold higher than control group” value turned out to be 12 fold. Moreover, the “Brain and tumor blood volumes, change by infusion” value in the data set on RG-2 glioma [5] was “not altered”. Further, the “HRP around normal brain capillary at high dose” value with normal brain capillary is recorded as “caused intravasation of HRP around the normal brain capillary”. The Evans blue staining result with RG-2 glioma [6] is “well recognized in the tumor but not in the normal brain”. Further, the “Stimulation of uptake of Lucifer yellow” value in data set [7] is 40%. Besides, in [1], the “Effect on systemic blood pressure” value was “did not alter systemic blood pressure” and the “Infusion rate at which systemic blood pressure was reduced” value was “greater than 20 μg/kg/min”.

Source of the values: US5527778A, “Method for selective opening of abnormal brain tissue capillaries” (priority 1995, dated 1996).
